Reference: patent publication US20230416239A1, “COMPOUNDS AND METHODS FOR TREATING A CYTOKINE-MEDIATED DISEASE” (CONSERVATOIRE NATIONAL DES ARTS ET MÉTIERS, priority 2020, published 2023)

How the values were obtained:
TNFα = TNFα (Homo sapiens, UniProt P01375); assay: Immunoassay binding test, TNFa; details: compounds 100 to 0.78 μM; TNFα 10 ng/ml, receptor 100 ng/ml; read-out: BINDING TNF IC50
How it was run: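 ELISA-type binding test: receptor-coated plates blocked with 2% BSA, then cytokine (six-point dilution series) preincubated 2 h at 37 °C and bound overnight at 4 °C. Detection used biotinylated anti-cytokine antibody and avidin-HRP, read as OD at 450 nm. For IL-6, IL-6Ra was present at 200 ng/ml final.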

TNFa/TNFRI interaction = TNFa/TNFRI interaction (Homo sapiens, UniProt P01375); assay: TNFa/TNFRI interaction displacement test; assay type: binding; details: compounds at 50 μM; human TNFRI 100 ng/ml
How it was run: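 Plates coated overnight at 4° C with human TNFRI (100 ng/ml) and blocked with 2% BSA, then test mixtures were incubated overnight at 4° C. Bound cytokine detected with biotinylated anti-cytokine antibody (2 h, 37° C) and avidin-HRP, read as OD at 450 nm.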

IL-6 = IL-6 (Homo sapiens, UniProt P05231); assay: Immunoassay binding test, IL-6 (gp130 receptor, IL-6Ra present); details: IL-6Ra 200 ng/ml
How it was run: (§1)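 Compounds (final 100 to 0.78 μM) were preincubated 2 h at 37 °C with a fixed amount of cytokine; for IL-6, IL-6Ra was also present at 200 ng/ml final. Mixtures were then incubated overnight at 4 °C on receptor-coated plates. Bound cytokine was detected with biotinylated anti-cytokine antibody and avidin-HRP, read as OD at 450 nm.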

IL-13 = IL-13 (Homo sapiens, UniProt P35225); assay: Immunoassay binding test, IL-13; details: for IC50: IL-13 400 ng/ml, receptor 100 ng/ml, read-out: BINDING IL13 IC50
How it was run: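 Receptor-coated plates; compounds (100 to 0.78 μM final) preincubated 2 h at 37° C with fixed cytokine, then bound to receptor overnight at 4° C. Bound cytokine detected with biotinylated anti-cytokine antibody and avidin-HRP, OD 450 nm.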

IL-4 = molecular target: T1, IL-4 (Homo sapiens, UniProt P05112); assay: Immunoassay binding test, IL-4; details: for IC50: IL-4 400 ng/ml, receptor 100 ng/ml, read-out: BINDING IL4 IC50
T1 sequence (P05112 25-153): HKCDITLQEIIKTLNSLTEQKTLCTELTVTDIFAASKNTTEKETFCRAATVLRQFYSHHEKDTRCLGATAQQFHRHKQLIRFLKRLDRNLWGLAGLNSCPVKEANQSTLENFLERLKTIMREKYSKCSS
How it was run: as §1

Sequence of IL-6 (P05231 30-212, species assumed): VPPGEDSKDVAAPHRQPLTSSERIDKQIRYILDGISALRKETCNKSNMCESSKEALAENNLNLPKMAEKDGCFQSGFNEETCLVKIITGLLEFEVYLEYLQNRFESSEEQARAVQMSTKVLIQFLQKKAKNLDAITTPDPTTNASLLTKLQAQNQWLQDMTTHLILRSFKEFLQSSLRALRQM
Sequence of IL-13 (P35225 25-146, species assumed): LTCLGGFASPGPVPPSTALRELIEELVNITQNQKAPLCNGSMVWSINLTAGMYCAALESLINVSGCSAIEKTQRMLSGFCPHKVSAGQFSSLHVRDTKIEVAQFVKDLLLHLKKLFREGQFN
Sequence of TNFα (P01375 77-233 limits assumed, species assumed): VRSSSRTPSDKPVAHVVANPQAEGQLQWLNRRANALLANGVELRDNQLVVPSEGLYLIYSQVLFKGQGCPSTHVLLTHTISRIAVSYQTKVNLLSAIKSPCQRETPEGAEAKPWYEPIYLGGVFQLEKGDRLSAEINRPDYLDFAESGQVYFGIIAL
Sequence of TNFa/TNFRI interaction (P01375 77-233 limits assumed): as the sequence (P01375 77-233 limits assumed, species assumed) above

| SMILES | IC50 (TNFα) | Displacement (%) (TNFa/TNFRI interaction) | BINDING IL6 % Neutra at 100 μM (IL-6) | BINDING IL13 % Neutra at 100 μM (IL-13) | BINDING IL4 % Neutra at 100 μM (IL-4) | IC50 (IL-4) | IC50 (IL-13) |
| --- | --- | --- | --- | --- | --- | --- | --- |
| CN1CCN(C(=O)NCCCCN(Cc2cccnc2F)Cc2cn(S(=O)(=O)c3ccccc3)c3ccccc23)CC1 [Compound 83] | 21 µM | 93% | 0% | 1% | 84.6% | > 50 µM |  |
| O=C(NCCCCN(Cc1cccnc1F)Cc1cn(S(=O)(=O)c2ccccc2)c2ccccc12)N1CCOCC1 [Compound 84] | 21.2 µM | 111% | 3% | 0% | 0% |  |  |
| CC(=O)NCCCCN(Cc1cccnc1F)Cc1cn(S(=O)(=O)c2ccccc2)c2ccccc12 [Compound 85] | 44.3 µM | 45% | 3% | 0% | 36.6% | > 100 µM |  |
| O=S(=O)(c1ccccc1)n1cc(CN(CCCCN(C2CCC2)C2CCC2)Cc2cccnc2F)c2ccccc21 [Compound 86] | 5 µM | 188% | 6% | 87.9% | 92.6% | 4.9 µM | > 50 µM |
| NCCCCN(Cc1cn(S(=O)(=O)c2ccccc2)c2ccccc12)Cc1cn(S(=O)(=O)c2ccccc2)c2ccccc12 [Compound 87] | 18.8 µM | 28% | 6% | 94.2% | 95.5% | 4.4 µM | 8.2 µM |
| O=S(=O)(c1ccccc1)n1cc(CN(CCCCNCc2cccnc2F)Cc2cn(S(=O)(=O)c3ccccc3)c3ccccc23)c2ccccc21 [Compound 88] | > 50 µM | 5% | 9% | 8% | 69.0% | 5.3 µM |  |
| O=S(=O)(c1ccccc1)n1cc(CN(CCCCNC2CCCCC2)Cc2cn(S(=O)(=O)c3ccccc3)c3ccccc23)c2ccccc21 [Compound 89] | 15 µM | 63% | 0% | 94.7% | 95.6% | 2 µM | 2.6 µM |
| CN(C)CCCCCN(Cc1cccc(F)n1)Cc1cn(S(=O)(=O)c2ccccc2)c2ccccc12 [Compound 90] | 15.5 µM | 137% | 0% | 69.7% | 94.0% | 5.2 µM | > 50 µM |
| CN(CCCCN(Cc1ccn(S(=O)(=O)c2ccccc2)c1)Cc1cccnc1F)C1CCCCC1 [Compound 91, N1-cyclohexyl-N4-((2-fluoropyridin-3-yl)methyl)-N1-methyl-N4-((1-(phenylsulfonyl)-1H-pyrrol-3-yl)methyl)butane-1,4-diamine] | 27.5 µM | 87% | 0% | 35.8% | 87.5% | 16.4 µM | > 50 µM |
| CN1CCN(S(=O)(=O)n2cc(CN(CCCCN(C)C3CCCCC3)Cc3cccnc3F)c3ccccc32)CC1 [Compound 92] | 8.4 µM | 117% | 2% | 72.0% | 92.3% | 7.7 µM | > 50 µM |
| CCN(CCOCCN(Cc1cccnc1F)Cc1cn(S(=O)(=O)c2ccccc2)c2ccccc12)C1CCCCC1 [Compound 93, N-ethyl-N-(2-(2-(((2-fluoropyridin-3-yl)methyl)((1-(phenylsulfonyl)-1H-indol-3-yl)methyl)amino)ethoxy)ethyl)cyclohexanamine] | 11.2 µM | 160% | 0% | 91.3% | 89.8% | 2.8 µM | 7.8 µM |
| CN(CCCCN(Cc1cccnc1F)Cc1cn(S(=O)(=O)c2ccccc2)c2ncccc12)C1CCCCC1 [Compound 94, N1-cyclohexyl-N4-((2-fluoropyridin-3-yl)methyl)-N1-methyl-N4-((1-(phenylsulfonyl)-1H-pyrrolo[2,3-b]pyridin-3-yl)methyl)butane-1,4-diamine] | 19 µM | 101% | 0% | 75.2% | 95.8% | 34.5 µM | > 50 µM |
| CN(CCCCN(Cc1cccnc1F)Cc1cn(C)c2ccccc12)C1CCCCC1 [Compound 95] | > 50 µM | 16% | 0% | 0% | 75.3% | > 50 µM |  |
| CCn1cc(CN(CCCCN(C)C2CCCCC2)Cc2cccnc2F)c2ccccc21 [Compound 96] | > 50 µM | 26% | 1% | 0% | 74.5% | 62.3 µM |  |
| CCCN(CCOCCN(Cc1cccnc1F)Cc1cn(S(=O)(=O)c2ccccc2)c2ccccc12)C1CCCCC1 [Compound 97, N-(2-(2-(((2-fluoropyridin-3-yl)methyl) ((1-(phenylsulfonyl)-1H-indol-3-yl)methyl)amino)ethoxy)ethyl)-N-propylcyclohexanamine] | 10.5 µM | 153% | 0% | 73.9% | 94.6% | 6.6 µM | > 50 µM |
| CCCN(CCCCN(Cc1cccnc1F)Cc1cn(S(=O)(=O)c2ccccc2)c2ccccc12)C1CCCC1 [Compound 98] | 9.9 µM | 127% | 0% | 90.2% | 93.4% | 6.2 µM | > 50 µM |
| CCCCN(CCOCCN(Cc1cccnc1F)Cc1cn(S(=O)(=O)c2ccccc2)c2ccccc12)C1CCCCC1 [Compound 99, N-butyl-N-(2-(2-(((2-fluoropyridin-3-yl)methyl)((1-(phenylsulfonyl)-1H-indol-3-yl)methyl)amino)ethoxy)ethyl)cyclohexanamine] | 8.2 µM | 173% | 0% | 91.8% | 87.4% | 4.4 µM | > 50 µM |
| CCN(CCOCCN(Cc1cccnc1F)Cc1cn(S(=O)(=O)c2ccccc2)c2ccccc12)C1CCCCC1 [Compound 100] | 8 µM | 128% | 0% | 83.0% | 87.7% | 8.6 µM | > 50 µM |
| CCCN(CCOCCN(Cc1cccnc1F)Cc1cn(S(=O)(=O)c2ccccc2)c2ccccc12)C1CCCCC1 [Compound 101] | 17.4 µM | 152% | 0% | 56.3% | 81.9% | 7.9 µM | 35.5 µM |
| CCCCN(CCOCCN(Cc1cccnc1F)Cc1cn(S(=O)(=O)c2ccccc2)c2ccccc12)C1CCCCC1 [Compound 102] | 7.2 µM | 138% | 0% | 39.2% | 83.2% | 6.3 µM | > 25 µM |
| O=S(=O)(c1ccccc1)n1cc(CN(CCOCCNC2CCCC2)Cc2cccnc2F)c2ccccc21 [Compound 103, N-(2-(2-(((2-fluoropyridin-3-yl)methyl)((1-(phenylsulfonyl)-1H-indol-3-yl)methyl)amino)ethoxy)ethyl)cyclopentanamine] | 10.2 µM | 159% | 0% | 89.1% | 91.1% | 10.5 µM | 38.9 µM |
| CN(CCOCCN(Cc1cccnc1F)Cc1cn(S(=O)(=O)c2ccccc2)c2ccccc12)C1CCCC1 [Compound 104] | 9.2 µM | 123% | 0% | 79.8% | 88.2% | 13.2 µM | > 50 µM |
